pIC50: −log10 of the molar value.
Legend:
MHCC-97H cells = assay: Liver orthotopic tumor model; type: in vivo, nude mice; conditions: for Tumor inhibition rate / Weight of tumor: 6 administrations; for Average weight (X ± S), End: animal weight at end, in g (unit assumed)
From the text: The medium was changed once every 1-2 days. […] The subcultured tumor cells were digested under a sterile condition and resuspended with sodium chloride injection, and subcutaneously inoculated at the right flank of nude mice. When the subcutaneous tumors in the nude mice grew to a volume about 1,500-2,000 mm^3, the tumor mass was removed under a sterile condition, and cut into pieces in a size about 1.0×1.0 mm for future use. Then the nude mice to be inoculated were anesthetized and fixed on the operating table. The abdominal skin was disinfected, and an incision about 1 cm was made in the left upper abdomen to expose the liver, with the surgical site covered. The prepared tumor piece was placed into a dedicated inoculation trocar, and was implanted into the liver by using the trocar. The bleeding site of the wound was treated with sterilized gauze or sterilized cotton swab to stop the bleeding. Then liver which underwent surgery was placed back into the abdominal cavity of mice. The abdominal muscles and skin were sutured with 4/0 gauge surgical needle sequentially. After normal feeding of the mice for 2 weeks, size of liver tumor was observed under B-ultrasound.
Method: Animal models were randomized into vehicle control group, intraperitoneal low dose group (18 mg/kg), intraperitoneal high dose group (36 mg/kg), and gavage group (36 mg/kg), with 9 mice each group. The mice received treatment once every 24 hours. Intraperitoneal administration was done by intraperitoneal injection. The vehicle control group received DMSO injected intraperitoneally. Six times of administration were given. After the last administration, animals were kept for another 3 weeks, then sacrificed by cervical dislocation, and dissected to obtain liver. Visible tumor was dissected and weighed.

[1] = tested on: neuroblastoma SK-N-SH cells; assay: Subcutaneous SK-N-SH tumor-bearing nude mouse model; type: in vivo, nu/nu female mice; conditions: SK-N-SH s.c. nude mice, once every 24 h, 6 administrations
From the text: Model establishment: nu/nu female mice of 6-8 weeks old were fed under an SPF condition in an animal facility for one week, and then each of them was inoculated with 5×10^6 neuroblastoma SK-N-SH cells (purchased from ATCC) subcutaneously in left flank. Tumor volume was monitored every day after inoculation. Once the size reached ˜100 mm^3, mice were divided into groups.
Each group included 10 animals.

TrkB = TrkB (Homo sapiens, UniProt Q16620); assay: Kinase Glo Plus kinase activity assay; type: biochemical
Description: (§1) 2) Activity of the rest 14 receptor tyrosine kinases was tested by using Kinase Glo Plus assay format, Progmag, and IC50 with regard to kinase activity was calculated based on the inhibition rate.

FGFR = assay: Kinase Glo Plus kinase activity assay; type: biochemical
Description: as §1

PDGFR = assay: Kinase Glo Plus kinase activity assay; type: biochemical
Description: as §1

TrkA [2] = molecular target: T1, TrkA (Homo sapiens, UniProt P04629); assay: Kinase Glo Plus kinase activity assay; type: biochemical
Description: as §1

TrkA [3] = molecular target: T1, TrkA; assay: Western blot, NGF-induced TrkA phosphorylation and signaling pathway in SK-N-SH cells; type: cell-based; conditions: 0.05-1.0 μM, 500 ng/mL NGF
Description: The medium was changed once every 1-2 days. […] 500 ng/mL NGF or 200 ng/ml BDNF (if not added, marked as “-”) were added to stimulate the cells for 5 min. After cell lysis, total protein was extracted. Western blot assay was carried out with TrkA phosphorylated and non-phosphorylated (p-TrkA) antibodies, TrkB phosphorylated and non-phosphorylated (p-TrkB) antibodies, ERK phosphorylated and non-phosphorylated (p-ERK) antibodies, Akt phosphorylated and non-phosphorylated (p-Akt) antibodies, and GAPDH antibody.

NCI-H460 cells = assay: Subcutaneous tumor-bearing nude mice model; type: in vivo; conditions: NCI-H460 s.c. nude mice; 16 mg/kg intraperitoneal, once every 24 h, 6 administrations; by tumor weight
From the text: (§2) The cells were washed with PBS twice, and suspended.

HepG2 cells = assay: Subcutaneous tumor-bearing nude mice model; type: in vivo; conditions: HepG2 s.c. nude mice; 16 mg/kg intraperitoneal, once every 24 h, 6 administrations; by tumor weight
From the text: as §2

lung cancer cell A549 = assay: Lung orthotopic tumor formation model; type: in vivo, BALB/c nude mice; conditions: for Tumor inhibition rate / Weight of tumor: 6 administrations; for Average weight (X ± S), End: animal weight at end, in g (unit assumed)
Description: The medium was changed once every 1-2 days. […] The subcultured tumor cells were digested into suspensions under a sterile condition, and orthotopically injected into BALB/c nude mice at the left chest between the third and fourth ribs (3.0×10^6 cells/mouse, 30 μl). The inoculation needle entered into the pulmonary lobe at a depth of about 5 mm. The inoculation day is labeled as DO. Seven days later, animals were weighed and randomized into groups based on body weight.
Method: Animal models were randomized into three groups, vehicle control group (DMSO injected intraperitoneally), intraperitoneal low dose group (18 mg/kg), and intraperitoneal high dose group (36 mg/kg). The animals received treatment once every 24 hours. After 6 times of successive administration, animals were kept for another 30 days. At the end of this experiment, animals were sacrificed, and dissected to obtain lungs. Tumor was dissected and weighed.

[4] = intraperitoneal high dose 36 mg/kg
[5] = intraperitoneal low dose 18 mg/kg

T1 sequence (P04629 33-796, species assumed): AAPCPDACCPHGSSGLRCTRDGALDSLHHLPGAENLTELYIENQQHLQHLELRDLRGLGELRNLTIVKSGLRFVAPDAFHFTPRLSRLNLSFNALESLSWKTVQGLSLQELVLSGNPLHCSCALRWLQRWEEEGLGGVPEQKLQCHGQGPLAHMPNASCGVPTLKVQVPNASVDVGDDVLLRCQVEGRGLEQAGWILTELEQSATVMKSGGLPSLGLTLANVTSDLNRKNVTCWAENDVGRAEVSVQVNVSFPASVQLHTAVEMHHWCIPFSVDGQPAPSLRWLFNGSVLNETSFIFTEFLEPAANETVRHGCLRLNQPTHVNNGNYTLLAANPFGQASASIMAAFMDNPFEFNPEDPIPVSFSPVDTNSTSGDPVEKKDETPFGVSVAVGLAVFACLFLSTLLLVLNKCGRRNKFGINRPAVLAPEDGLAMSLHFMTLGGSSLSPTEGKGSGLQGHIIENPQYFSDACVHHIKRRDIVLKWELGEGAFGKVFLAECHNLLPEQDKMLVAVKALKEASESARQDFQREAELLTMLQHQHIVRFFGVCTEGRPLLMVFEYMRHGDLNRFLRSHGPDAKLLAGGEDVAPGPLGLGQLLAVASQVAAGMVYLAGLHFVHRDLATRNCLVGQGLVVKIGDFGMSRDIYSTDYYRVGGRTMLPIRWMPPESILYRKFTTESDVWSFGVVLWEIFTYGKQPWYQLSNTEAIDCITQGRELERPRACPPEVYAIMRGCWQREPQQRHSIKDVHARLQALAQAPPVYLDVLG
Sequence of TrkB (Q16620 32-822, species assumed): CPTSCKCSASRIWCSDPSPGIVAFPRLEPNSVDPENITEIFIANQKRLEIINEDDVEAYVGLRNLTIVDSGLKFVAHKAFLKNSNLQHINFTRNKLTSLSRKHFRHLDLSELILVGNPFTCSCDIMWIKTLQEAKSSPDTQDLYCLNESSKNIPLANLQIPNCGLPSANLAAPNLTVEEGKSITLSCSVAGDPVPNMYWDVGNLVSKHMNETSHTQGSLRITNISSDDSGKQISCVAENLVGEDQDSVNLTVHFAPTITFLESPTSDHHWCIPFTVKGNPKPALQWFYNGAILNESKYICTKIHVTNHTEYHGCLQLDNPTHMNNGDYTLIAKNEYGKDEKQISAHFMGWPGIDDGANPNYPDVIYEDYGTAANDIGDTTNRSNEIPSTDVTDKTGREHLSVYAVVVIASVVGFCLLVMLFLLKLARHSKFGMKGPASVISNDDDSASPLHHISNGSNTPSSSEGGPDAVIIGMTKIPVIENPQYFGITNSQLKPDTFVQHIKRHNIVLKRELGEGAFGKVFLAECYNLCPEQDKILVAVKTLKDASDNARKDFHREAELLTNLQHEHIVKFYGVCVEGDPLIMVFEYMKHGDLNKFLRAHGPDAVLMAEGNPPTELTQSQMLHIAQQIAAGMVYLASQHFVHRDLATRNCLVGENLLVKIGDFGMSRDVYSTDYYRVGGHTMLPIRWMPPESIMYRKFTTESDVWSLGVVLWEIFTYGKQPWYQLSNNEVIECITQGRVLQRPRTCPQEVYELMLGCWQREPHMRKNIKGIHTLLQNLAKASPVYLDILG

In the case of `Cc1ccccc1NS(=O)(=O)c1ccc2c(c1)/C(=C/c1nc3ccccc3[nH]1)C(=O)N2` [Indo 5, 3-(1H-benzimidazol-2-methylene)-5-(2-methylphenylaminosulfo)-2-indolone], the Tumor inhibition rate (MHCC-97H cells; gavage (PO) 36 mg/kg) was 62.2%, the Weight of tumor (MHCC-97H cells; gavage (PO) 36 mg/kg) was 0.401 ± 0.530 g and the “Average weight (X ± S), End” value (MHCC-97H cells; gavage (PO) 36 mg/kg) was 21.01 ± 3.41. The Tumor inhibition rate (MHCC-97H cells; [4]) was 62.4%, the Weight of tumor (MHCC-97H cells; [4]) was 0.399 ± 0.486 g and the “Disappearance of liver tumor at end of experiment” value (MHCC-97H cells; intraperitoneal high dose 36 mg/kg, 9 animals) was “Liver cancer was gone in one animal”. The “Average weight (X ± S), End” value (MHCC-97H cells; [4]) was 21.18 ± 1.44, the Tumor inhibition rate (MHCC-97H cells; [5]) was 55.5% and the Weight of tumor (MHCC-97H cells; [5]) was 0.473 ± 0.497 g. The “Average weight (X ± S), End” value (MHCC-97H cells; [5]) was 20.61 ± 2.33, the Tumor inhibition rate ([1]; 16 mg/kg gavage) was 48% and the Tumor inhibition rate ([1]; 16 mg/kg intraperitoneal) was 50%. For the same compound, the pIC50 (TrkB) was 6.64, the pIC50 (FGFR) was < 5.00 and the pIC50 (PDGFR) was < 5.00. For the same compound, the pIC50 (TrkA [2]) was 7.66, the “Phosphorylation of TrkA and downstream ERK” value (TrkA [3]) was “significantly inhibited” and the Tumor inhibition rate (NCI-H460 cells) was 59%. It also gave a Tumor inhibition rate (HepG2 cells) of 61%, a Tumor inhibition rate (lung cancer cell A549; [4]) of 40.7% and a Weight of tumor (lung cancer cell A549; [4]) of 0.224 ± 0.07 g. For the same compound, the “Average weight (X ± S), End” value (lung cancer cell A549; [4]) was 20.4 ± 0.3, the Tumor inhibition rate (lung cancer cell A549; [5]) was 23.8% and the Weight of tumor (lung cancer cell A549; [5]) was 0.288 ± 0.08 g. For the same compound, the “Average weight (X ± S), End” value (lung cancer cell A549; [5]) was 19.5 ± 0.7.

— patent US9642839B2, “Substance having tyrosine kinase inhibitory activity and preparation method and use thereof” (Institute of Radiation Medicine, China Academy of Military …, priority 2013, dated 2017)
